# Earlier results, collected in patent US20080081067A1, “SUSTAINED RELEASE PHARMACEUTICAL COMPOSITIONS OF VENLAFAXINE AND PROCESS FOR PREPARATION THEREOF” (priority 2006, published 2008).
# System: monoamine oxidase
# Settings: background statement
compound,measurement,value
COc1ccc(C(CN(C)C)C2(O)CCCCC2)cc1 (stereo not shown) [Venlafaxine],inhibitory activity on monoamine oxidase,no inhibitory activity
